≈ marks a conversion by molar mass, not a printed value.
Columns and labels:
Recombinant HIV protease = target: T1, Recombinant HIV protease (Human immunodeficiency virus type 1 group M subtype B, UniProt P04585); test: HIV protease inhibitory activity (cleavage of synthetic hepta-peptide, HPLC); type: biochemical; details: for inhibition at 0.05 µM / HIV protease inhibitory activity (%): 37° C., 60 min; for inhibition at 5 µM: read-out: HIV protease inhibitory activity (%)
T1 construct: Recombinant HIV protease
Procedure: Recombinant HIV protease (Biochemistry, 250 (9), 264 (1990)) and synthetic hepta-peptide (H-Ser-Gln-Asn-Tyr-Pro-Ile-Val-OH/trifluoroacetic acid salt) were used for assay of protease activity. Peptide fragment H-Pro-Ile-Val-OH formed by cleavage between -Tyr . . . Pro of said substrate after a reaction in the presence of various concentration of tested compound at 37° C. for 60 min. was determined by reversed phase HPLC and the inhibitory rate was calculated (referred to Japanese laid-open unexamined patent, No. 170722/1993).
The concentration of tested compound represents the final concentration thereof of the reaction mixture.

HTLV-IIIB virus = test: Anti-HIV activity: protection of HTLV-IIIB infected MT-4 cells, MTT method; type: cell-based; details: MT-4 cells infected with HTLV-IIIB, 5 day culture
Procedure: The anti-HIV activity of the dipeptide compound of the present invention was evaluated as described below. That is, the inhibitory action of the compound on formation of HIV virus particles which infects T lymphocyte was evaluated by potency to prevent death of T lymphocyte accompanied by said virus infection.
(§1) According to a test method which was already reported in publications (H.Nakashima et al., Antimicrob. Agents Chemother.36, 1249-1255 (1992), etc.,), anti-HIV activity was evaluated, by using MT-4 cell line and HTLV-IIIB virus, MT-4 cells (2.5×10^4 well, MOI:001) infected with said HTLV-IIIB virus just before the addition were into 96-well microtiter plate wherein each well contained various concentration of tested compound. At the same time, in order to investigate cytotoxicity of tested compounds to MT-4 cell line, non-infected MT-4 cell line was cultured in the presence of various kinds of tested compound. After 5 day culture at 37° C. in a CO2 incubator, the number of vial cells was counted by MTT method.
Virus whose infectious value was 3.8×10^4 TCID 50/ml was used.

MT-4 cell line = test: Cytotoxicity to non-infected MT-4 cell line, MTT method; type: cell-based; details: non-infected MT-4 cells, 5 day culture
Procedure: as §1, with “method. […]” for “method.”

[1] = Pharmacokinetics in rats, intravenous or intraduodenal administration, plasma concentration; type: in vivo; details: 10.0 mg/kg
Procedure: Metabolic characteristics of the dipeptide compounds of the present invention was evaluated using rats. Tested compounds dissolved in vehicle was administered intraduodenally or intravenously. After administration, blood was taken and the concentration of residual tested compound in plasma was analyzed. The dosage of the tested compound was described in table 3.

## CCCc1c(O)cccc1C(=O)N[C@@H](Cc1ccccc1)[C@H](O)C(=O)N1CSC[C@H]1C(=O)NC(C)(C)C [Compound of example 32, (R)-N-tert-butyl-3-[(2S,3S)-2-hydroxy-3-(3-hydroxy-2-propylbenzoyl)amino-4-phenylbutanoyl]-1,3-thiazolidine-4-carboxamide]
Recombinant HIV protease; concentration 50 nM (final)
  inhibition at 0.05 µM: 17.2%
Recombinant HIV protease
  inhibition at 5 µM: 92%

## CC(C)(C)NC(=O)[C@@H]1CSCN1C(=O)[C@@H](O)[C@H](Cc1ccccc1)NC(=O)c1ccccc1 [Compound of example 1, (R)-N-tert-butyl-3-[(2S,3S)-2-hydroxy-3-[benzoyl]amino-4-phenylbutanoyl]-1,3-thiazolidine-4-carboxamide]
Recombinant HIV protease
  inhibition at 5 µM: 52%

## CCc1c(O)cccc1C(=O)N[C@@H](Cc1ccccc1)[C@H](O)C(=O)N1CSC[C@H]1C(=O)NCc1ccccc1C [Compound of example 35, (R)-N-(2-methylbenzyl)-3-[(2S,3S)-3-(2-ethyl-3-hydroxybenzoyl)amino-2-hydroxy-4-phenylbutanoyl]-1,3-thiazolidine-4-carboxamide]
Recombinant HIV protease; concentration 50 nM (final)
  inhibition at 0.05 µM: 48.8%
Recombinant HIV protease
  inhibition at 5 µM: 98.1%
HTLV-IIIB virus; Human immunodeficiency virus 1, MT4, 120 h
  EC50: 4.15 µg/mL (≈ 7.39 µM)
MT-4 cell line
  Cytotoxicity CC50: 90.9 µg/mL

## Cc1cccc(C(=O)N[C@@H](Cc2ccccc2)[C@H](O)C(=O)N2CSC[C@H]2C(=O)NC(C)(C)C)c1C [Compound of example 26, (R)-N-tert-butyl-3-[(2S,3S)-2-hydroxy-3-(2,3-dimethylbenzoyl]amino-4-phenylbutanoyl]-1,3-thiazolidine-4-carboxamide]
Recombinant HIV protease
  inhibition at 5 µM: 77.9%

## Cc1ccccc1C(=O)N[C@@H](Cc1ccccc1)[C@H](O)C(=O)N1CSC[C@H]1C(=O)NC(C)(C)C [Compound of example 2, (R)-N-tert-butyl-3-[(2S,3S)-2-hydroxy-3-[2-methylbenzoyl]amino-4-phenylbutanoyl]-1,3-thiazolidine-4-carboxamide]
Recombinant HIV protease
  inhibition at 5 µM: 74.9%

## Cc1ccccc1CNC(=O)[C@H]1N(C(=O)[C@@H](O)[C@H](Cc2ccccc2)NC(=O)c2cccc(O)c2C)CSC1(C)C [Compound of example 37, (R)-N-(2-methylbenzyl)-3-[(2S,3S)-3-(3-hydroxy-2-methylbenzoyl)amino-2-hydroxy-4-phenylbutanoyl]-5,5-dimethyl-1,3-thiazolidine-4-carboxamide]
Recombinant HIV protease; concentration 50 nM (final)
  inhibition at 0.05 µM: 95.8%
Recombinant HIV protease
  inhibition at 5 µM: > 99%
[1]; i.d.
  AUC: 55 µg/mL/min
[1]; i.v.
  AUC: 131 µg/mL/min

## Cc1c(O)cccc1C(=O)N[C@@H](Cc1ccccc1)[C@H](O)C(=O)N1CSC[C@H]1C(=O)NCc1ccccc1Cl [Compound of example 42, (R)-N-(2-chlorobenzyl)-3-[(2S,3S)-3-(3-hydroxy-2-methylbenzoyl)amino-2-hydroxy-4-phenylbutanoyl]-1,3-thiazolidine-4-carboxamide]
Recombinant HIV protease; concentration 50 nM (final)
  inhibition at 0.05 µM: 51.2%
Recombinant HIV protease
  inhibition at 5 µM: 97.4%

## Cc1c(O)cccc1C(=O)N[C@@H](Cc1ccccc1)[C@H](O)C(=O)N1CCC[C@H]1C(=O)NC(C)(C)C [Compound of example 24, N-tert-butyl-1-[(2S,3S)-2-hydroxy-3-N-[3-hydroxy-2-methylbenzoyl]amino-4-phenylbutanoyl]-L-prolinamide]
Recombinant HIV protease; concentration 50 nM (final)
  HIV protease inhibitory activity (%): 17.6%
Recombinant HIV protease; concentration 5 μM (final)
  HIV protease inhibitory activity (%): 94.2%
HTLV-IIIB virus
  Anti-HIV activity EC50: 1.97 µg/mL
MT-4 cell line
  Cytotoxicity CC50: 231 µg/mL

## Cc1c(O)cccc1C(=O)N[C@@H](Cc1ccccc1)[C@H](O)C(=O)N1CS(=O)(=O)C[C@H]1C(=O)NC(C)(C)C [Compound of example 28, (R)-N-tert-butyl-3-[(2S,3S)-2-hydroxy-3-(2-methyl-3-hydroxybenzoyl)amino-4-phenylbutanoyl]-1,3-thiazolidine-1,1-dioxide-4-carboxamide]
Recombinant HIV protease; concentration 50 nM (final)
  HIV protease inhibitory activity (%): 23.8%
Recombinant HIV protease; concentration 5 μM (final)
  HIV protease inhibitory activity (%): 96.1%
HTLV-IIIB virus
  Anti-HIV activity EC50: 1.80 µg/mL
MT-4 cell line
  Cytotoxicity CC50: 146 µg/mL

## Cc1ccccc1CNC(=O)[C@H]1NC[C@@H](Cl)C1C(=O)[C@@H](O)[C@H](Cc1ccccc1)NC(=O)c1cccc(O)c1C (stereo partly drawn) [Compound of example 41, (2S,4S)-N-(2-methylbenzyl)-3-[(2S,3S)-3-(3-hydroxy-2-methylbenzoyl)amino-2-hydroxy-4-phenylbutanoyl]-4-chloropyrrolidine-2-carboxamide]
Recombinant HIV protease; concentration 50 nM (final)
  inhibition at 0.05 µM: 76.8%
Recombinant HIV protease
  inhibition at 5 µM: 97.7%

## CCCCNC(=O)[C@@H]1CSCN1C(=O)[C@@H](O)[C@H](Cc1ccccc1)NC(=O)c1cccc(O)c1C [Compound of example 39, (R)-N-n-butyl-3-[(2S,3S)-3-(3-hydroxy-2-methylbenzoyl)amino-2-hydroxy-4-phenylbutanoyl]-1,3-thiazolidine-4-carboxamide]
Recombinant HIV protease; concentration 50 nM (final)
  inhibition at 0.05 µM: 13.4%
Recombinant HIV protease
  inhibition at 5 µM: 92%

## Cc1cccc(C)c1CNC(=O)[C@@H]1CSCN1C(=O)[C@@H](O)[C@H](Cc1ccccc1)NC(=O)c1cccc(O)c1C [Compound of example 44, (R)-N-(2,6-dimethylbenzyl)-3-[(2S,3S)-3-(3-hydroxy-2-methylbenzoyl)amino-2-hydroxy-4-phenylbutanoyl]-1,3-thiazolidine-4-carboxamide]
Recombinant HIV protease; concentration 50 nM (final)
  inhibition at 0.05 µM: 75.2%
Recombinant HIV protease
  inhibition at 5 µM: 97.9%

## Cc1c(N)cccc1C(=O)N[C@@H](Cc1ccccc1)[C@H](O)C(=O)N1CSC[C@H]1C(=O)NC(C)(C)C [Compound of example 25, (R)-N-tert-butyl-3-[(2S,3S)-2-hydroxy-3-[3-amino-2-methylbenzoyl]amino-4-phenylbutanoyl]-1,3-thiazolidine-4-carboxamide]
Recombinant HIV protease
  inhibition at 5 µM: 81.3%

## Cc1c(N)cc(N)cc1C(=O)N[C@@H](Cc1ccccc1)[C@H](O)C(=O)N1CSC[C@H]1C(=O)NC(C)(C)C [Compound of example 33, (R)-N-tert-butyl-3-[(2S,3S)-2-hydroxy-3-(3,5-diamino-2-methylbenzoyl)amino-4-phenylbutanoyl]-1,3-thiazolidine-4-carboxamide]
Recombinant HIV protease
  inhibition at 5 µM: 85.2%

## Cc1c(O)cccc1C(=O)N[C@@H](Cc1ccccc1)[C@H](O)C(=O)N1CSC(C)(C)[C@H]1C(=O)NCc1ccccc1Cl [Compound of example 45, (R)-N-(2-chlorobenzyl)-3-[(2S,3S)-3-(3-hydroxy-2-methylbenzoyl)amino-2-hydroxy-4-phenylbutanoyl]-5,5-dimethylthiazolidine-4-carboxamide]
Recombinant HIV protease; concentration 50 nM (final)
  inhibition at 0.05 µM: 94.5%
Recombinant HIV protease
  inhibition at 5 µM: > 99%

## CC(C)(C)NC(=O)[C@@H]1CSCN1C(=O)[C@@H](O)[C@H](Cc1ccccc1)NC(=O)c1ccc(O)cc1 [Compound of example 7, (R)-N-tert-butyl-3-[(2S,3S)-2-hydroxy-3-[4-hydroxybenzoyl]amino-4-phenylbutanoyl]-1,3-thiazolidine-4-carboxamide]
Recombinant HIV protease
  inhibition at 5 µM: 62.2%

## CC(C)(C)NC(=O)[C@@H]1CSCN1C(=O)[C@@H](O)[C@H](Cc1ccccc1)NC(=O)c1cccc(O)c1 [Compound of example 6, (R)-N-tert-butyl-3-[(2S,3S)-2-hydroxy-3-[3-hydroxybenzoyl]amino-4-phenylbutanoyl]-1,3-thiazolidine-4-carboxamide]
Recombinant HIV protease
  inhibition at 5 µM: 76%

## CC(C)(C)NC(=O)[C@@H]1CSCN1C(=O)[C@@H](O)[C@H](Cc1ccccc1)NC(=O)c1cc(O)cc(O)c1 [Compound of example 29, (R)-N-tert-butyl-3-[(2S,3S)-2-hydroxy-3-(3,5-dihydroxybenzoyl)amino-4-phenylbutanoyl]-1,3-thiazolidine-4-carboxamide]
Recombinant HIV protease
  inhibition at 5 µM: 75.6%

## CC(C)(C)NC(=O)[C@@H]1CSCN1C(=O)[C@@H](O)[C@H](Cc1ccccc1)NC(=O)c1ccc(C(=O)O)cc1 [Compound of example 13, (R)-N-tert-butyl-3-[(2S,3S)-2-hydroxy-3-[4-carboxybenzoyl]amino-4-phenylbutanoyl]-1,3-thiazolidine-4-carboxamide]
Recombinant HIV protease
  inhibition at 5 µM: 70.4%

Reference: patent US5962640A, “Methods for preparing novel dipeptide compounds or pharmacuetically acceptable salts thereof” (Japan Energy Corporation, priority 1995, dated 1999)
